Source: patent publication US20150259747A1, “METHOD OF PREDICTING A PREDISPOSITION TO QT PROLONGATION” (priority 2007, published 2015)

Test system: individuals genotyped at the rs993648 locus
Experiment: QT interval change after two weeks of oral iloperidone in 174 individuals genotyped at the CERKL rs993648 locus
Type: in vivo, human
Conditions: iloperidone 24 mg/day B.I.D. oral; for High QT, - test (number of individuals) / Low QT, - test (number of individuals): rs993648 genotype AB (- test); for High QT, - test (number of individuals) / High QT, + test (number of individuals) / Low QT, - test (number of individuals) / Low QT, + test (number of individuals): n=174; for High QT, + test (number of individuals) / Low QT, + test (number of individuals): rs993648 genotype non-AB (+ test)
Experimental: Since the QT interval changes with changes in heart rate, the QT interval is often measured as a corrected QT (QTc) interval. Any number of formulas may be employed to calculate the QTc, including, for example, the Fridericia formula (QTcF), the Bazett formula (QTcB), and the Rautaharju formula (QTp), among others. In the studies described herein, QT was calculated using the Fridericia formula. However, the present invention includes the use of any such formula or method for calculating a QTc or an uncorrected QT. Using the genotypes at the SNP loci above, it is possible, with a high degree of certainty, to predict an individual's predisposition to QT prolongation.

[1] = QTc change threshold >5 msec not exceeded
[2] = QTc change threshold >15 msec not exceeded
[3] = QTc change threshold >30 msec not exceeded

## COc1cc(C(C)=O)ccc1OCCCN1CCC(c2noc3cc(F)ccc23)CC1 [iloperidone]
QTc change >5 msec vs rs993648 non-AB genotype
  Odds Ratio: 3.62
QTc change >5 msec
  High QT, - test (number of individuals): 38
  High QT, + test (number of individuals): 72
QTc change >15 msec vs rs993648 non-AB genotype
  Odds Ratio: 4.45
QTc change >15 msec
  High QT, - test (number of individuals): 18
  High QT, + test (number of individuals): 53
QTc change >30 msec vs rs993648 non-AB genotype
  Odds Ratio: 6.16
QTc change >30 msec
  High QT, - test (number of individuals): 4
  High QT, + test (number of individuals): 23
[1]
  Low QT, - test (number of individuals): 42
  Low QT, + test (number of individuals): 22
[2]
  Low QT, - test (number of individuals): 62
  Low QT, + test (number of individuals): 41
[3]
  Low QT, - test (number of individuals): 76
  Low QT, + test (number of individuals): 71
